These results are taken from patent US20030072824A1, “Ume extract having medicinal effects and compositions containing the same” (priority 1998, published 2003).

A short description of this test: Anti-oxidation action, DPPH radical trapping (Example 2). The following applies: absorbance at 517 nm reduced to half, 30 minutes. On the procedure:
An ethanol solution of a stable radical 1,1-diphenyl-2-picryl-hydrazyl (DPPH) has an absorption at 517 nm in blue. When a radical trapping substance is added to this solution, the solution is discolored depending on the amount of the trapping substance added. This phenomenon was utilized in this method. First, 1 ml of ethanol, 1 ml of an ethanol solution of the extract (concentration: 0 to 100 μg/ml), 2 ml of 0.2 M acetic acid buffer solution (pH 5.5) and 1 ml of DPPH solution (2.0×10^−7 mol/ml ethanol solution) were mixed, and the mixture was allowed to stand for 30 minutes. Then, the absorbance of this mixed solution was determined at 517 nm. On the other hand, a mixture solution substituting 1 ml of ethanol for the DPPH solution was used as a blank, and the absorbance of this mixture solution was determined at 517 nm in the same manner as the above. Then, the amount of the extract required to reduce the absorbance to half was calculated, and this was used as an indicator of anti-oxidation. As comparative examples, α-tocopherol and green tea were used in place of the extract, and the anti-oxidation power thereof was investigated.
In general terms: DPPH is a stable violet radical that fades when it is reduced.

As for `Cc1c(C)c2c(c(C)c1O)CC[C@@](C)(CCC[C@H](C)CCC[C@H](C)CCCC(C)C)O2` [α-tocopherol], the “Anti-oxidation power: the amount required to trap 1.0 × 10^−7 mol DPPH” value turned out to be 21 μg.
